Laboratory results: patent publication US10111885B2, “Compositions and therapeutic methods for the treatment of complement-associated diseases” (Resverlogix Corp., priority 2015, dated 2018)

Experiments:
Experiment in all cases: Complement mRNA expression in primary human hepatocytes
Assay type in all cases: cell-based
[1] = test system: MBL2 mRNA; settings: 0.3 uM, maximum at 24 h, single donor
Description: (§1) Huh-7 and HepG2 cells are liver-derived cell lines and are models for what can occur in the liver. Huh-7 cells (JCRB Cell Bank) were introduced to 96-well plates (^˜2.5×10^5 per well) in 100 μL DMEM containing 10% (v/v) FBS, 100 U/mL penicillin, 100 ug/mL streptomycin and 5 ug/mL plasmocin (all reagents from Gibco, except for the former, which was obtained from Invivogen). After 24 h, Huh-7 cells were treated with compounds in the same media formulation used for plating, and supplemented with 0.1% DMSO for the amount of time indicated in tables 2, 3, and 4. For select experiments, 24 h post-plating, cells were treated with cytokines and the compound of interest simultaneously, for a total treatment time of 48 h. Alternatively, 24 h after plating, cells were pre-treated with cytokines for 24 h before adding the compound of interest for 48 h. HepG2 cells (ATCC) were cultured in 96-well plates (^˜2.5×10^5 per well) in MEM containing 10% FBS, 1× non-essential amino acids, 1 mM sodium pyruvate, 2 mM L-glutamine, 100 U/mL penicillin, 100 ug/mL streptomycin and 5 ug/mL plasmocin. Serum amount was reduced to 0.5% for treatments with compound or cytokines. Timing of treatment of HepG2 cells with compounds and cytokines was as described for Huh-7 cells. Primary human hepatocytes (CellzDirect/Life Technologies) were plated in collagen coated 96-well plates at 70 000 cells/well, then overlaid with Matrigel™ as recommended by the supplier. Cells were treated with compounds of interest and/or cytokines for the indicated time points in the recommended media supplemented with 0.1% DMSO and 10% FBS (v/v). Cells were harvested by mRNA Catcher PLUS Kit (Life Technologies) followed by real-time PCR using the RNA UltraSense One-Step qRT-PCR System. The level of the mRNA of interest was measured by TaqMan real-time PCR relative to the endogenous control cyclophilin A in the same sample.

[2] = test system: complement C1S mRNA; settings: 0.3 uM, maximum at 72 h, single donor
Description: as §1

[3] = test system: complement C2 mRNA; settings: 0.3 uM, maximum at 72 h, single donor
Description: as §1

[4] = test system: complement C3 mRNA; settings: 0.3 uM, maximum at 24 h, single donor
Description: as §1

[5] = test system: complement C4 mRNA; settings: 0.3 uM, maximum at 24 h, single donor
Description: as §1

[6] = test system: complement C5 mRNA; settings: 0.3 uM, maximum at 24 h, single donor
Description: as §1

[7] = test system: complement C9 mRNA; settings: 0.3 uM, maximum at 48 h, single donor
Description: as §1

## Cc1sc2c(c1C)C(c1ccc(Cl)cc1)=N[C@@H](CC(=O)OC(C)(C)C)c1nnc(C)n1-2 [JQ1, (S)-tert-butyl 2-(4-(4-chlorophenyl)-2,3,9-trimethyl-6H-thieno[3,2-f][1,2,4]triazolo[4,3-a][1,4]diazepin-6-yl)acetate, reference compound]
[1]
  MBL2 percent maximal reduction in gene expression: 93% (24 h)
[2]
  C1S percent maximal reduction in gene expression: 22% (72 h)
[3]
  C2 percent maximal reduction in gene expression: 29% (72 h)
[4]
  C3 percent maximal reduction in gene expression: 54% (24 h)
[5]
  C4 percent maximal reduction in gene expression: 31% (24 h)
[6]
  C5 percent maximal reduction in gene expression: 67% (24 h)
[7]
  C9 percent maximal reduction in gene expression: 72% (48 h)
